Values joined by “and” are separate entries in the source; they are usually repeats but may differ in a detail not shown here. Equal entries are not always repeated. Toxic doses and inconclusive results are not listed.
System: B6C3F1 mice, Lewis lung carcinoma iv, survival T/C
Test: NCI In Vivo Anticancer Drug Screen. Data for tumor model Lewis Lung Carcinoma (intravenous) in B6C3F1 mice
Conditions: endpoint: median survival time, schedule: Q01DX009 (ip), higher = longer survival
In short: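 Mice carrying transplanted tumors received test compound; survival in the treated group was divided by that of the vehicle-treated control group to give the T/C value.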

[1] = dose: 5.0 mg/kg/injection, vehicle: saline with Tween-80
[2] = dose: 10.0 mg/kg/injection, vehicle: saline with Tween-80
[3] = dose: 6.25 mg/kg/injection, vehicle: saline with Tween-80
[4] = dose: 12.5 mg/kg/injection, vehicle: saline with Tween-80
[5] = dose: 25.0 mg/kg/injection, vehicle: saline with Tween-80
[6] = dose: 50.0 mg/kg/injection, vehicle: saline with Tween-80
[7] = dose: 200.0 mg/kg/injection, vehicle: saline with Tween-80
[8] = dose: 400.0 mg/kg/injection, vehicle: saline with Tween-80
[9] = dose: 25.0 mg/kg/injection, vehicle: Klucel (hydroxypropylcellulose) (HPC)
[10] = dose: 50.0 mg/kg/injection, vehicle: Klucel (hydroxypropylcellulose) (HPC)
[11] = dose: 100.0 mg/kg/injection, vehicle: Klucel (hydroxypropylcellulose) (HPC)
[12] = dose: 6.25 mg/kg/injection, vehicle: saline
[13] = dose: 12.5 mg/kg/injection, vehicle: saline
[14] = dose: 50.0 mg/kg/injection, vehicle: saline
[15] = dose: 100.0 mg/kg/injection, vehicle: saline
[16] = dose: 25.0 mg/kg/injection, vehicle: saline
[17] = dose: 12.0 mg/kg/injection, vehicle: saline
[18] = dose: 100.0 mg/kg/injection, vehicle: saline with Tween-80

COc1cc2c3c(cccc3c1)C(=O)N(CCN(C)C)C2=O
T/C [1]: 101 % of control
T/C [2]: 110 % of control
T/C (dose: 20.0 mg/kg/injection, vehicle: saline with Tween-80): 122 % of control
T/C (dose: 40.0 mg/kg/injection, vehicle: saline with Tween-80): 101 % of control
T/C (dose: 80.0 mg/kg/injection, vehicle: saline with Tween-80): 119 % of control

FC(F)(F)c1nc2nc(Cl)c(Cl)nc2[nH]1
T/C [3]: 98 % of control
T/C [4]: 106 % of control
T/C [5]: 106 % of control
T/C [6]: 93 % of control

BrC1CC(Br)c2c1c1c(c3c2C(Br)CC3Br)C(Br)CC1Br (stereo not given)
T/C [4]: 99 % of control
T/C [5]: 103 % of control
T/C [6]: 92 % of control
T/C [7]: 121 % of control
T/C [8]: 112 % of control

O=C1OC(=O)[C@H]2[C@@H]1[C@H]1C=C[C@@H]2OC1=O
T/C (dose: 12.5 mg/kg/injection, vehicle: suspension in saline): 104 % of control
T/C (dose: 25.0 mg/kg/injection, vehicle: suspension in saline): 119 % of control
T/C (dose: 50.0 mg/kg/injection, vehicle: suspension in saline): 98 % of control
T/C (dose: 100.0 mg/kg/injection, vehicle: suspension in saline): 99 % of control
T/C (dose: 200.0 mg/kg/injection, vehicle: suspension in saline): 104 % of control

CC1=C/C(O)CC(=O)Cc2nc(co2)C(=O)N2CCC=C2C(=O)OC(C(C)C)C(C)/C=C\C(=O)NC/C=C\1 (stereo not given)
T/C [9]: 98 % of control
T/C [10]: 104 % of control
T/C [11]: 92 % of control
T/C (dose: 200.0 mg/kg/injection, vehicle: Klucel (hydroxypropylcellulose) (HPC)): 97 % of control
T/C (dose: 400.0 mg/kg/injection, vehicle: Klucel (hydroxypropylcellulose) (HPC)): 104 % of control

O=C(/C=C(\Cl)C(=O)NO)NO
T/C [12]: 115 % of control
T/C [13]: 112 % of control
T/C [14]: 110 % of control
T/C [15]: 104 % of control

CCCC(=O)O
T/C [13]: 123 % of control
T/C [16]: 109 % of control
T/C [14]: 114 % of control
T/C [15]: 106 % of control
T/C (dose: 200.0 mg/kg/injection, vehicle: saline): 98 % of control

NC(=O)c1csc(C2OC(CO)C(O)C2O)n1 (stereo not given)
T/C (dose: 0.78 mg/kg/injection, vehicle: saline): 94 % of control
T/C (dose: 1.56 mg/kg/injection, vehicle: saline): 109 % of control
T/C (dose: 3.12 mg/kg/injection, vehicle: saline): 108 % of control
T/C [12]: 119 % of control
T/C [17]: 155 % of control and 158 % of control
T/C [13]: 284 % of control
T/C (dose: 25.0 mg/kg/injection, vehicle: water): 240 % of control and 348 % of control and 355 % of control
T/C (dose: 50.0 mg/kg/injection, vehicle: water): 240 % of control and 348 % of control and 355 % of control
T/C (dose: 62.5 mg/kg/injection, vehicle: water): 295 % of control
T/C (dose: 100.0 mg/kg/injection, vehicle: water): 240 % of control and 348 % of control and 355 % of control
T/C (dose: 125.0 mg/kg/injection, vehicle: water): 295 % of control
T/C (dose: 200.0 mg/kg/injection, vehicle: water): 240 % of control and 348 % of control and 355 % of control
T/C (dose: 250.0 mg/kg/injection, vehicle: water): 295 % of control
T/C (dose: 400.0 mg/kg/injection, vehicle: water): 240 % of control and 348 % of control and 355 % of control
T/C (dose: 500.0 mg/kg/injection, vehicle: water): 295 % of control
T/C (dose: 800.0 mg/kg/injection, vehicle: water): 240 % of control
T/C (dose: 1000.0 mg/kg/injection, vehicle: water): 295 % of control

[N-]=[N+]=[N-]
T/C (dose: 1.5 mg/kg/injection, vehicle: saline): 96 % of control
T/C (dose: 3.0 mg/kg/injection, vehicle: saline): 98 % of control
T/C (dose: 6.0 mg/kg/injection, vehicle: saline): 106 % of control
T/C [17]: 95 % of control

C[n+]1c(-c2cccc(OCCOCCOc3cccc(-c4c5cc(N)ccc5c5ccc(N)cc5[n+]4C)c3)c2)c2cc(N)ccc2c2ccc(N)cc21
T/C (dose: 0.5 mg/kg/injection, vehicle: water): 105 % of control
T/C (dose: 0.75 mg/kg/injection, vehicle: saline with Tween-80): 103 % of control
T/C (dose: 1.0 mg/kg/injection, vehicle: water): 96 % of control
T/C (dose: 1.5 mg/kg/injection, vehicle: saline with Tween-80): 102 % of control
T/C (dose: 2.0 mg/kg/injection, vehicle: water): 100 % of control
T/C (dose: 3.0 mg/kg/injection, vehicle: saline with Tween-80): 99 % of control
T/C (dose: 4.0 mg/kg/injection, vehicle: water): 100 % of control and 105 % of control
T/C (dose: 6.0 mg/kg/injection, vehicle: saline with Tween-80): 108 % of control
T/C (dose: 8.0 mg/kg/injection, vehicle: water): 105 % of control and 110 % of control
T/C (dose: 16.0 mg/kg/injection, vehicle: water): 116 % of control

Nc1ccc(Cn2ccc3c4c(N)nc(N)nc4ccc32)cc1
T/C (dose: 1.25 mg/kg/injection, vehicle: saline with Tween-80): 105 % of control
T/C (dose: 2.5 mg/kg/injection, vehicle: saline with Tween-80): 107 % of control
T/C [1]: 107 % of control
T/C [2]: 108 % of control

COC(=O)[C@@]12OC[C@]34[C@H]([C@@H](O)[C@@H]1O)[C@@]1(C)CC(=O)C(O)=C(C)[C@@H]1C[C@H]3OC(=O)[C@H](OC(=O)/C=C(\C)C(C)C)[C@@H]24
T/C (dose: 0.25 mg/kg/injection, vehicle: saline + alcohol): 102 % of control
T/C (dose: 0.5 mg/kg/injection, vehicle: saline + alcohol): 104 % of control
T/C (dose: 1.0 mg/kg/injection, vehicle: saline + alcohol): 107 % of control

CC(=O)N(C)c1ccc(Nc2cc(C)[nH]c3ccc4ncnc4c23)cc1
T/C [12]: 100 % of control
T/C [13]: 100 % of control
T/C [16]: 105 % of control
T/C [14]: 102 % of control

O=[N+]([O-])c1ccc(Sc2ccncn2)c([N+](=O)[O-])c1
T/C [3]: 90 % of control
T/C [4]: 102 % of control
T/C [5]: 95 % of control
T/C [6]: 86 % of control
T/C [18]: 99 % of control

CCC1=C2C(=O)c3ccccc3C2=C(C)S(=O)(=O)O1
T/C (dose: 3.12 mg/kg/injection, vehicle: saline with Tween-80): 104 % of control
T/C [3]: 99 % of control
T/C [4]: 97 % of control
T/C [5]: 107 % of control

CC(Oc1ccccc1-c1ccccc1)C(=O)N(C)C (stereo not given)
T/C [4]: 106 % of control
T/C [5]: 110 % of control
T/C [6]: 107 % of control
T/C [18]: 96 % of control
T/C [7]: 101 % of control
T/C [8]: 100 % of control

CCc1ccccc1N1CCN(C(=O)c2cc(OC)c(OC)c(OC)c2)CC1
T/C (dose: 6.25 mg/kg/injection, vehicle: Klucel (hydroxypropylcellulose) (HPC)): 106 % of control
T/C (dose: 12.5 mg/kg/injection, vehicle: Klucel (hydroxypropylcellulose) (HPC)): 103 % of control
T/C [9]: 110 % of control
T/C [10]: 110 % of control
T/C [11]: 105 % of control
